Measured values as given in patent US4760136A, “Chartreusin derivatives and salts thereof” (Ishihara Sangyo Kaisha, Ltd., priority 1984, dated 1988).
Like-named read-outs stand apart in the source and are kept apart here.

What was measured:
[1] = system: P-388 leukemia cells; test: Antitumor activity: P-388 leukemia cells inoculated intraperitoneally, drug administered intravenously, BDF1 mice; type: in vivo
Summary of the method: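 Drug dosing was intravenous on the first, fifth and ninth days after intraperitoneal inoculation of P-388 leukemia cells (1×10^6 per mouse) into BDF1 mice. Vehicles were physiological saline alone, or saline with small amounts of sodium carboxymethyl cellulose or Tween-80.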

[2] = Acute toxicity, intravenous (once), ddY mice; type: in vivo; conditions: mouse, in vivo, formulated per Preparation Example
From the text: In Table 7 are shown acute toxicity values (LD50, mg/kg) in ddY mice in the case of intravenously administering (once) each of the compounds of this invention in the form of preparations shown in the Preparation Examples shown in Table 7.

[3] = Mus musculus, P388, iv, dose c: 40 mg/kg × 3, i.v. on days 1, 5 and 9, BDF1 mice, P-388 i.p., read-out: T/C (%) of MST
[4] = Mus musculus, P388, iv, dose f: 80 mg/kg × 3, i.v. on days 1, 5 and 9, BDF1 mice, P-388 i.p., read-out: T/C (%) of MST
[5] = Mus musculus, P388, iv, dose b: 20 mg/kg × 3, i.v. on days 1, 5 and 9, BDF1 mice, P-388 i.p., read-out: T/C (%) of MST
[6] = Mus musculus, P388, iv, read-out: T/C (%) of MST

Structure (SMILES)	response vs control in vivo at 40 mg/kg [1, 3] [%]	response vs control in vivo at 80 mg/kg [1, 4] [%]	LD50 ([2]; iv) [mg/kg]	response vs control in vivo at 20 mg/kg [1, 5] [%]	other results
COc1ccc(C(=O)Oc2c3cccc(O[C@@H]4O[C@H](C)[C@@H]5OC(C)(C)O[C@@H]5[C@H]4O[C@H]4O[C@H](C)[C@H](O)[C@H](OC)[C@H]4O)c3c3oc(=O)c4c(C)ccc5oc(=O)c2c3c54)cc1 [compound 208]	136	192	≥ 80		
CO[C@H]1[C@@H](O)[C@@H](C)O[C@H](O[C@H]2[C@H](Oc3cccc4c(OC(=O)C5CC5C)c5c(=O)oc6ccc(C)c7c(=O)oc(c34)c5c67)O[C@H](C)[C@@H]3OC(C)(C)O[C@@H]32)[C@@H]1O (stereo partly shown) [Compound No. 178]	142	181	≥ 80		
COC1C(O)C(C)OC(OC2C(Oc3cccc4c(OC(=O)C(Br)C(C)C)c5c(=O)oc6ccc(C)c7c(=O)oc(c34)c5c67)OC(C)C3OC(C)(C)OC32)C1O (stereo not shown) [Compound No. 172]	148	195	≥ 80		
COC1C(O)C(C)OC(OC2C(Oc3cccc4c(OC(=O)CCNC(=O)CN)c5c(=O)oc6ccc(C)c7c(=O)oc(c34)c5c67)OC(C)C3OC(c4cccc(F)c4)OC32)C1O (stereo not drawn) [compound 33, 6-O-(glycyl-β-alanyl)-3',4'-O-(m-fluorobenzylidene)-chartreusin phosphate]			≥ 40	186	response vs control in vivo at 10 mg/kg ([1]; Mus musculus, P388, iv, dose a: 10 mg/kg × 3, i.v. on days 1, 5 and 9, BDF1 mice, P-388 i.p., read-out: T/C (%) of MST): 157%
COC1C(O)C(C)OC(OC2C(Oc3cccc4c(OC(=O)CCN)c5c(=O)oc6ccc(C)c7c(=O)oc(c34)c5c67)OC(C)C3OC(c4ccccc4)OC32)C1O (stereo not shown) [Compound No. 18]			≥ 40		T/C (%) of MST ([1]; dose b: 20 mg/kg × 3, i.v. on days 1, 5 and 9, BDF1 mice, P-388 i.p.): 196%; T/C (%) of MST ([1]; dose c: 40 mg/kg × 3, i.v. on days 1, 5 and 9, BDF1 mice, P-388 i.p.): 238%
CO[C@H]1[C@@H](O)[C@@H](C)O[C@H](O[C@H]2[C@H](Oc3cccc4c(OC(=O)c5ccc(Cl)cc5)c5c(=O)oc6ccc(C)c7c(=O)oc(c34)c5c67)O[C@H](C)[C@@H]3OC(c4ccccc4)O[C@@H]32)[C@@H]1O (stereo partly shown) [compound 194]	192		≥ 40	130	
COC1C(O)C(C)OC(OC2C(Oc3cccc4c(OC(=O)C(C)CN)c5c(=O)oc6ccc(C)c7c(=O)oc(c34)c5c67)OC(C)C3OC(c4ccccc4)OC32)C1O (stereo not drawn) [Compound No. 6, 6-O-(β-Amino-Isobutyryl)-3',4'-O-Benzylidene-Chartreusin Phosphate]	242		≥ 40	182	
COC1C(O)C(C)OC(OC2C(Oc3cccc4c(OC(=O)CCNC(=O)c5ccccc5)c5c(=O)oc6ccc(C)c7c(=O)oc(c34)c5c67)OC(C)C3OC(c4cccc(F)c4)OC32)C1O (stereo not drawn) [Compound No. 47, 6-O-(N-benzoyl-β-alanyl)-3',4'-O-(m-fluorobenzylidene)-chartreusin]	150	210	≥ 80		
CCCC(=O)Oc1c2cccc(OC3OC(C)C4OC(c5ccccc5)OC4C3OC3OC(C)C(O)C(OC)C3O)c2c2oc(=O)c3c(C)ccc4oc(=O)c1c2c43 (stereo not shown) [Compound No. 191, 6-O-(n-Butyryl)-3',4'-O-Benzylidene-Chartreusin]			≥ 40	155	
COC1C(O)C(C)OC(OC2C(Oc3cccc4c(OC(=O)CCNC=O)c5c(=O)oc6ccc(C)c7c(=O)oc(c34)c5c67)OC(C)C3OC(c4cccc(Br)c4)OC32)C1O (stereo not shown) [Compound No. 54]	144	208	≥ 80		
COC1C(O)C(C)OC(OC2C(Oc3cccc4c(OC(=O)CCS(C)(=O)=O)c5c(=O)oc6ccc(C)c7c(=O)oc(c34)c5c67)OC(C)C3OC(c4ccccc4)OC32)C1O (stereo not shown) [Compound No. 168]			≥ 40	167	
COC1C(O)C(C)OC(OC2C(Oc3cccc4c(OC(=O)C(C)C)c5c(=O)oc6ccc(C)c7c(=O)oc(c34)c5c67)OC(C)C3OC(C)(C)OC32)C1O (stereo not shown) [compound 222]	144	162	≥ 80		
CCC(C)C(=O)Oc1c2cccc(OC3OC(C)C4OC5(CCCCC5)OC4C3OC3OC(C)C(O)C(OC)C3O)c2c2oc(=O)c3c(C)ccc4oc(=O)c1c2c43 (stereo not shown) [compound 241]		135	≥ 80		
COC1C(O)C(C)OC(OC2C(Oc3cccc4c(OC(=O)C(Cc5c[nH]c6ccccc56)NC(=O)OCc5ccccc5)c5c(=O)oc6ccc(C)c7c(=O)oc(c34)c5c67)OC(C)C3OC(C)(C)OC32)C1O (stereo not shown) [compound 126]		150	≥ 100		
COC1C(O)C(C)OC(OC2C(Oc3cccc4c(OC(=O)CNC(=O)CNC(=O)CN)c5c(=O)oc6ccc(C)c7c(=O)oc(c34)c5c67)OC(C)C3OC(c4ccccc4)OC32)C1O (stereo not shown) [Compound No. 11]			≥ 40	186	
COC1C(O)C(C)OC(OC2C(Oc3cccc4c(OC(=O)C(Cc5c[nH]c6ccccc56)NC(=O)OCc5ccccc5)c5c(=O)oc6ccc(C)c7c(=O)oc(c34)c5c67)OC(C)C3OC(c4cccc(C(F)(F)F)c4)OC32)C1O (stereo not shown) [compound 101]	171	225	≥ 80		
C/C=C(\C)C(=O)Oc1c2cccc(O[C@@H]3O[C@H](C)[C@@H]4OC(c5ccccc5)O[C@@H]4[C@H]3O[C@H]3O[C@H](C)[C@H](O)[C@H](OC)[C@H]3O)c2c2oc(=O)c3c(C)ccc4oc(=O)c1c2c43 (stereo partly shown) [compound 215]					response vs control in vivo at 40 mg/kg [1, 6]: 131%; response vs control in vivo at 80 mg/kg [1, 6]: 158%; LD50 [2]: ≥ 80 mg/kg
COC1C(O)C(C)OC(OC2C(Oc3cccc4c(OC(=O)C(C)OCc5ccccc5)c5c(=O)oc6ccc(C)c7c(=O)oc(c34)c5c67)OC(C)C3OC(c4ccccc4)OC32)C1O (stereo not shown) [Compound No. 151]	224		≥ 40	155	
COC1C(O)C(C)OC(OC2C(Oc3cccc4c(OC(=O)CCN)c5c(=O)oc6ccc(C)c7c(=O)oc(c34)c5c67)OC(C)C3OC(c4cccc(F)c4)OC32)C1O (stereo not drawn) [Compound No. 16, 6-O-(β-alanyl)-3',4'-O-(m-fluorobenzylidene)-chartreusin phosphate]	242		≥ 40	164	
COC1C(O)C(C)OC(OC2C(Oc3cccc4c(OC(=O)CNC(=O)OCc5ccccc5)c5c(=O)oc6ccc(C)c7c(=O)oc(c34)c5c67)OC(C)C3OC(c4ccccc4)OC32)C1O (stereo not shown) [compound 71]			≥ 40	157	
COC1C(O)C(C)OC(OC2C(Oc3cccc4c(OC(=O)CC(C)NC(=O)C(F)(F)F)c5c(=O)oc6ccc(C)c7c(=O)oc(c34)c5c67)OC(C)C3OC(c4ccccc4)OC32)C1O (stereo not shown) [Compound No. 39]	214		≥ 40	165	
CC=CC=CC(=O)Oc1c2cccc(OC3OC(C)C4OC(C)(C)OC4C3OC3OC(C)C(O)C(OC)C3O)c2c2oc(=O)c3c(C)ccc4oc(=O)c1c2c43 (stereo not shown) [compound 238]	130	192	≥ 80		
COC1C(O)C(C)OC(OC2C(Oc3cccc4c(OC(=O)C(C)CNC(=O)C(F)(F)F)c5c(=O)oc6ccc(C)c7c(=O)oc(c34)c5c67)OC(C)C3OC(c4cccc(C(F)(F)F)c4)OC32)C1O (stereo not shown) [Compound No. 30]	171	257	≥ 80		
CO[C@H]1[C@@H](O)[C@@H](C)O[C@H](O[C@H]2[C@H](Oc3cccc4c(OC(=O)c5ccc(Cl)cc5Cl)c5c(=O)oc6ccc(C)c7c(=O)oc(c34)c5c67)O[C@H](C)[C@@H]3OC(C)(C)O[C@@H]32)[C@@H]1O [Compound No. 180]	145	208	≥ 80		
COC1C(O)C(C)OC(OC2C(Oc3cccc4c(OC(=O)CCNC=O)c5c(=O)oc6ccc(C)c7c(=O)oc(c34)c5c67)OC(C)C3OC(c4ccsc4)OC32)C1O (stereo not shown) [compound 81]	173		≥ 40	139	
COC1C(O)C(C)OC(OC2C(Oc3cccc4c(OC(=O)CCCCCBr)c5c(=O)oc6ccc(C)c7c(=O)oc(c34)c5c67)OC(C)C3OC(C)(C)OC32)C1O (stereo not shown) [compound 235]	145		≥ 60		
COC1C(O)C(C)OC(OC2C(Oc3cccc4c(OC(=O)CCNC(=O)C(F)(F)F)c5c(=O)oc6ccc(C)c7c(=O)oc(c34)c5c67)OC(C)C3OC(C)(C)OC32)C1O (stereo not drawn) [Compound No. 49, 6-O-(N-Trifluoroacetyl-β-Alanyl)-3',4'-O-Isopropylidene-Chartreusin]		207	≥ 150		
CO[C@H]1[C@@H](O)[C@@H](C)O[C@H](O[C@H]2[C@H](Oc3cccc4c(OC(=O)C5CC5)c5c(=O)oc6ccc(C)c7c(=O)oc(c34)c5c67)O[C@H](C)[C@@H]3OC(C)(C)O[C@@H]32)[C@@H]1O [Compound No. 177]	153	208	≥ 80		
